The values below are quoted from earlier work in patent US10376470B2, “Oral tablet formulation consisting of fixed combination of rosuvastatin and ezetimibe for treatment of hyperlipidemia and cardiovascular diseases” (Althera Life Sciences, LLC, priority 2012, dated 2019).

`O=C1[C@H](CC[C@H](O)c2ccc(F)cc2)[C@@H](c2ccc(O)cc2)N1c1ccc(F)cc1` [Ezetimibe, ezetimibe]: the Solubility in water entry is given as “practically insoluble”.
